Measurements as given in patent US12134785B2, “Differentiation of pluripotent stem cells to form renal organoids” (The University of Queensland, priority 2014, dated 2024).

Experiments:
[1] = system: human iPSC line CRL1502 (clone#C32); assay: RA signaling control of A-P fate patterning of the IM (RA or AGN193109 with FGF9, monolayer differentiation, immunofluorescence); type: cell-based; details: day 18
Method: (§1) All experiments presented used the previously described wildtype human iPSC line CRL1502 (clone#C32) generated using episomal reprogramming^28. Undifferentiated human iPSCs were maintained on the mouse embryonic fibroblasts (MEFs) (Millipore) as a feeder layer with human ES cell (hES) medium as described previously^1. Cells were authenticated and tested for the mycoplasma infection^28. Human iPSCs were plated on a Matrigel-coated (Millipore) culture dish and cultured in MEF-conditioned hES medium (MEF-CM) until reaching to 60-100% confluent. Then, cells were again plated on a Matrigel-coated at 5,000 cells/cm^2 in MEF-CM. Next day, cells reached to 40-50% of confluent, cells were treated with 8 μM of CHIR99021 in APEL basal medium ([…] Technologies) supplemented with Antibiotic-Antimycotic (Life Technologies) for 2-5 days, followed by FGF9 (200 ng mL^−1) and Heparin (1 μg mL^−1) for another […], with changing medium every second day. At day 7, cells were collected and dissociated into single cells using Trypsin or TrypLE select (Life Technologies). Cells (0.5×10^6) were spun down at ×400 g for 2 min to form a pellet and then transferred onto a Transwell 0.4 μm pore polyester membrane (#CLS3450 Corning). Pellets were treated with 5 μM of CHIR99021 in APEL for 1 h, and then cultured with FGF9 (200 ng mL^−1) and Heparin (1 μg mL^−1) for 5 days, followed by another 6-13 days in APEL basal medium, with changing medium three times a week. Culture medium should not exceed above a membrane. For the differentiation in monolayer cultures, cells post CHIR99021 induction were treated by FGF9 (200 ng mL^−1) and Heparin (1 μg mL^−1) for 10 days, followed by APEL basal medium for another 6 days. In some experiments, RA (0.1 μM) or AGN193109 (5 μM) were added to FGF9 medium. A step-by step protocol describing kidney organoid generation was provided in Example 1.
For monolayer cells, antibody staining was performed as described previously^1. For the kidney organoid, organoids were fixed with 2% paraformaldehyde in PBS for 20 min at 4° C. followed by 3 times wash with PBS. […]

IM cells = assay: Preliminary data on differentiation of IM cells at different RA / AGN193109 concentrations; type: cell-based; details: higher concentrations of AGN193109
[2] = system: human iPSC line CRL1502 (clone#C32); assay: Duration of initial Wnt signaling (CHIR99021) prior to FGF9: AI/PI markers by qPCR and immunofluorescence; type: cell-based
Method: as §1
For monolayer cells, antibody staining was performed as described previously^1. For the kidney organoid, organoids were fixed with 2% paraformaldehyde in PBS for 20 min at 4° C. followed by 3 times wash with PBS. Then organoids were blocked with 10% donkey serum, 0.3% Triton X/PBS for 2-3 h at room temperature and incubated with primary antibodies overnight at 4° C. After 5 times washing with 0.1% Triton X/PBS. secondary antibodies were incubated for 4 h at room temperature. The following antibodies and dilutions were used: rabbit anti-PAX2 (1:300, #71-6,000, Zymed Laboratories), goat anti-SIX1 (1:300, #sc-9709, Santa Cruz Biotechnology), rabbit anti-SIX2 (1:300, #11562-1-AP, Proteintech), mouse anti-ECAD (1:300, #610181. BD Biosciences), rabbit anti-WT1 (1:100, #sc-192, Santa Cruz Biotechnology), mouse anti-HOXD11 (1:300, #SAB1403944, Sigma-Aldrich), goat anti-GATA3 (1:300, AF2605, R&D Systems). rabbit anti-JAG1 (1:300, #ab7771, Abcam), goat anti-Cubilin (1:150, #sc-20607. Santa Cruz Biotechnology), sheep anti-NPHS1 (1:300, AF4269, R&D Systems), LTL-biotin-conjugated (1:300, B-1325, Vector Laboratories), DBA-biotin-conjugated (1:300, B-1035, Vector Laboratories), mouse anti-KRT8 (1:300, #TROMA, DSHB), mouse anti-CD31 (1:300, #555444, BD Pharmingen), rabbit anti-KDR (1:300, #2479, Cell Signaling Technology), goat anti-SOX17 (1:300, #AF1924, R&D Systems), rabbit anti-NG2 (1:300, #AB5320, Merck Millipore), rabbit anti-SMA (1:300, #ab15267. Abcam), mouse anti-PDGFRA (1:200, #556001. BD Pharmingen), rabbit anti-Laminin (1:300, #L9393, Sigma-Aldrich), rabbit anti-UMOD (1:300, #BT-590, Biomedical Technologies), mouse anti-MEIS1 (1:300, #ATM39795, activemotif), goat anti-FOXD1 (1:200, #sc-47585, Santa Cruz Biotechnology) and rabbit anti-cleaved-CASP3 (1:300, #9661, Cell Signaling Technology). Images were taken using a Nikon Ti-U microscope or a Zeiss LSM 780 confocal microscope. All immunofluorescence analyses were successfully repeated more than three times and representative images are shown. […]

kidney organoids = assay: Regulation of nephrogenesis in the kidney organoid (CHIR99021 pulse, FGF9); type: cell-based, human
Method: as §1, with “Pellets were treated with 5 μM of CHIR99021 in APEL for 1 h, and then cultured with FGF9 (200 ng mL^−1) and Heparin (1 μg mL^−1) for 5 days, followed by another 6-13 days in APEL basal medium, with changing medium three times a week.” left out

[3] = longer duration of CHIR99021, day 7
[4] = shorter duration of CHIR99021, day 7

| SMILES | AI specification of early migrating cells ([1]; 3 days CHIR99021 followed by FGF9 + AGN) | induction of the MM lineage ([1]; AGN193109 (5 μM) with FGF9 after CHIR99021, monolayer) | UE induction (GATA3+PAX2+ECAD+) ([1]; RA (0.1 μM) or AGN193109 (5 μM) with FGF9 after CHIR99021, monolayer) | proportion of metanephric mesenchyme cells (IM cells) | UE induction (GATA3+PAX2+ECAD+) ([2]; fewer days in CHIR, after 18 days of culture) | induction of UE and MM in monolayer culture ([2]; initial 4 days of CHIR99021) | expression of the PSM markers TBX6 and T (qPCR) ([2]; longer days in CHIR99021) | induction of MM (PAX2+ECAD−) and its derivatives (PAX2+ECAD+) ([2]; longer days in CHIR, after 18 days of culture) | PI markers HOXD11 and EYA1 (qPCR) ([2]; longer days of 8 μM CHIR99021, day 7) | AI (GATA3) by immunofluorescence [2, 3] | PI (HOXD11) by immunofluorescence [2, 3] | AI (GATA3) by immunofluorescence [2, 4] | PI (HOXD11) by immunofluorescence [2, 4] | AI markers LHX1 and GATA3 (qPCR) ([2]; shorter period of 8 μM CHIR99021, day 7) | nephrogenesis in organoids (kidney organoids; 5 μM CHIR99021 for 1 h immediately post aggregation vs no pulse) | formation of aggregates (kidney organoids; 45 minute pulse of high CHIR (5 μM) immediately upon reaggregation) | maximal nephron number per organoid (kidney organoids; pulse of CHIR99021 for one hour after forming a pellet) |
| --- | --- | --- | --- | --- | --- | --- | --- | --- | --- | --- | --- | --- | --- | --- | --- | --- | --- |
| Cc1ccc(C2=CCC(C)(C)c3ccc(C#Cc4ccc(C(=O)O)cc4)cc32)cc1 [AGN193109] | inhibited | enhanced | inhibited | relative increase | – | – | – | – | – | – | – | – | – | – | – | – | – |
| Cc1c[nH]c(-c2cnc(NCCNc3ccc(C#N)cn3)nc2-c2ccc(Cl)cc2Cl)n1 [CHIR99021] | – | – | – | – | dominant UE induction | induction of both the UE and MM | Prolonged expression | preferential induction of MM | increased | less | more | more | less | induced | promoted nephrogenesis | enhanced | required |
